Reference: patent US20220315578A1, “BRD9 BIFUNCTIONAL DEGRADERS AND THEIR METHODS OF USE” (NOVARTIS AG, priority 2019, published 2022)

Molecular target: T1, BRD9-GFP (Homo sapiens, UniProt Q9H8M2)
T1 construct: CHYSEL (2A cis-acting hydrolase element) remnant after GFP; mCherry is split off as a separate protein (C); expressed in transfected cells; host or cells: HEK293A cells (Invitrogen R70507), lentiviral transduction with pLenti6-BRD9-GFP-CHYSEL-mCherry, blasticidin selection
T1 sequence (Q9H8M2 1-597): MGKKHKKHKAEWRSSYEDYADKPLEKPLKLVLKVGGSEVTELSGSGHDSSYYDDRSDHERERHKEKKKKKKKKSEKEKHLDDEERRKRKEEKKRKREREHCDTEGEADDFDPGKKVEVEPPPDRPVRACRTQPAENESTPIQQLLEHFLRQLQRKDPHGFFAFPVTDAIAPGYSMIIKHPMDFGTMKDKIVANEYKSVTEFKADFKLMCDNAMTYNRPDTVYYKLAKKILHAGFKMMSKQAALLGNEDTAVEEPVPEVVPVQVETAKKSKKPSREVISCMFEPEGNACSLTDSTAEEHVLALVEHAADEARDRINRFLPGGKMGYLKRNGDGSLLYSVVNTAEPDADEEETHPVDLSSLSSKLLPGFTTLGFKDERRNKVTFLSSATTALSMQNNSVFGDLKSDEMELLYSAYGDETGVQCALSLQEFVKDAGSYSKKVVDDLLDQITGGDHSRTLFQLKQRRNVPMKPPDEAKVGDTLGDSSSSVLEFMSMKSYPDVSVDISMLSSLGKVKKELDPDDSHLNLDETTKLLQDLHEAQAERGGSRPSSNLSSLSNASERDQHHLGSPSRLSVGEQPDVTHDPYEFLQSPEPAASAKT
Experiment: BRD9-GFP protein abundance flow cytometry assay in HEK293A cells
Format: cell-based
Conditions: HEK293A-BRD9-GFP-CHYSEL-mCherry cells; for BRD9 Deg Amax %: 24 h, % protein remaining at the concentration at which maximum degradation is seen; for DC50: 24 h at 37° C., 10-point 1:3 dilution, concentration at which 50% maximal degradation was observed
Procedure, shortened: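 HEK293A cells stably express bicistronic BRD9-GFP-CHYSEL-mCherry and received 24 h treatment at 37° C with a 10-point, 3-fold dilution series from […], in 0.1% DMSO and duplicate. Median GFP/mCherry ratio of 5,000 single cells by flow cytometry, normalized to mCherry-only cells (0%) and DMSO (100%), gave DC50 and Amax (% protein remaining).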

With `COc1cc(-c2cn(C)c(=O)c3cnccc23)cc(OC)c1CCN1CCC(OC2CCN(C(=O)c3cccc(N4CCC(=O)NC4=O)c3)CC2)CC1` [Compound A40, 1-(3-(4-((1-(2,6-Dimethoxy-4-(2-methyl-1-oxo-1,2-dihydro-2,7-naphthyridin-4-yl)phenethyl)piperidin-4-yl)oxy)piperidine-1-carbonyl)phenyl)dihydropyrimidine-2,4(1H,3H)-dione] the “BRD9 Deg Amax %” value was 14.20% and the DC50 was 4 nM.
With `COc1cc(-c2cn(C)c(=O)c3cnccc23)c(OC)cc1CCN1CCC(OC2CCN(C(=O)c3ccc(OC)c(N4CCC(=O)NC4=O)c3)CC2)CC1` [Compound A41, 1-(5-(4-((1-(2,5-Dimethoxy-4-(2-methyl-1-oxo-1,2-dihydro-2,7-naphthyridin-4-yl)phenethyl)piperidin-4-yl)oxy)piperidine-1-carbonyl)-2-methoxyphenyl)dihydropyrimidine-2,4(1H,3H)-dione] the “BRD9 Deg Amax %” value was 13.54% and the DC50 was 60 nM.
With `COc1ccc(C(=O)N2CCC(OC3CCN(Cc4c(OC)cc(-c5cn(C)c(=O)c6cnccc56)cc4OC)CC3)CC2)cc1N1CCC(=O)NC1=O` [Compound A42, 1-(5-(4-((1-(2,6-Dimethoxy-4-(2-methyl-1-oxo-1,2-dihydro-2,7-naphthyridin-4-yl)benzyl)piperidin-4-yl)oxy)piperidine-1-carbonyl)-2-methoxyphenyl)dihydropyrimidine-2,4(1H,3H)-dione] the “BRD9 Deg Amax %” value was 13.53% and the DC50 was 98 nM.
For `CCCn1cc(-c2cc(OC)c(CCN3CCC(OC4CCN(C(=O)c5ccc(Cl)c(N6CCC(=O)NC6=O)c5)CC4)CC3)c(OC)c2)cc(C)c1=O` [Compound B1, 1-(2-Chloro-5-(4-((1-(2,6-dimethoxy-4-(5-methyl-6-oxo-1-propyl-1,6-dihydropyridin-3-yl)phenethyl)piperidin-4-yl)oxy)piperidine-1-carbonyl)phenyl)dihydropyrimidine-2,4(1H,3H)-dione], the “BRD9 Deg Amax %” value was 11.90% and the DC50 was 2 nM.
`CCCn1cc(-c2cc(OC)c(CCN3CCC(OC4CCN(C(=O)c5ccc(Cl)c(N6CCC(=O)NC6=O)c5)CC4)CC3)c(OC)c2)c(C)c(C)c1=O` [Compound B2, 1-(2-Chloro-5-(4-(1-(4-(4,5-dimethyl-6-oxo-1-propyl-1,6-dihydropyridin-3-yl)-2,6-dimethoxyphenethyl)piperidin-4-yloxy)piperidine-1-carbonyl)phenyl)dihydropyrimidine-2,4(1H,3H)-dione] was tested, and the “BRD9 Deg Amax %” value was 13.73% and the DC50 was 2 nM.
`CCCCn1cc(-c2cc(OC)c(CN3CCC(OC4CCN(C(=O)c5ccc(OC)c(N6CCC(=O)NC6=O)c5)CC4)CC3)cc2OC)c2ccncc2c1=O` [Compound B3, 1-(5-(4-((1-(4-(2-butyl-1-oxo-1,2-dihydro-2,7-naphthyridin-4-yl)-2,5-dimethoxybenzyl)piperidin-4-yl)oxy)piperidine-1-carbonyl)-2-methoxyphenyl)dihydropyrimidine-2,4(1H,3H)-dione] was tested, and the “BRD9 Deg Amax %” value was 10.95% and the DC50 was 27 nM.
In the case of `CCCCn1cc(-c2cc(OC)c(CCN3CCC(OC4CCN(C(=O)c5ccc(Cl)c(N6CCC(=O)NC6=O)c5)CC4)CC3)c(OC)c2)c2ccncc2c1=O` [Compound B4, 1-(5-(4-((1-(4-(2-butyl-1-oxo-1,2-dihydro-2,7-naphthyridin-4-yl)-2,6-dimethoxyphenethyl)piperidin-4-yl)oxy)piperidine-1-carbonyl)-2-chlorophenyl)dihydropyrimidine-2,4(1H,3H)-dione], the “BRD9 Deg Amax %” value is reported as 14.82% and the DC50 is reported as 3 nM.
`CCCCn1cc(-c2ccc(OC3CCN(CC4CCN(C(=O)c5ccc(OC)c(N6CCC(=O)NC6=O)c5)CC4)CC3)c(OC)c2)c2ccncc2c1=O` [Compound B5, 1-(5-(4-((4-(4-(2-butyl-1-oxo-1,2-dihydro-2,7-naphthyridin-4-yl)-2-methoxyphenoxy)piperidin-1-yl)methyl)piperidine-1-carbonyl)-2-methoxyphenyl)dihydropyrimidine-2,4(1H,3H)-dione] was tested, and the “BRD9 Deg Amax %” value was 13.14% and the DC50 was 4 nM.
With `CCCCn1cc(-c2ccc(OC3CCN(CC4CCN(C(=O)c5ccc(Cl)c(N6CCC(=O)NC6=O)c5)CC4)CC3)c(OC)c2)c2ccncc2c1=O` [Compound B6, 1-(5-(4-((4-(4-(2-butyl-1-oxo-1,2-dihydro-2,7-naphthyridin-4-yl)-2-methoxyphenoxy)piperidin-1-yl)methyl)piperidine-1-carbonyl)-2-chlorophenyl)dihydropyrimidine-2,4(1H,3H)-dione] the “BRD9 Deg Amax %” value was 16.75% and the DC50 was 1 nM.
In the case of `CCCCn1cc(-c2cc(OC)c(OCC3CCN(CC4CCN(C(=O)c5ccc(OC)c(N6CCC(=O)NC6=O)c5)CC4)CC3)c(OC)c2)c2ccncc2c1=O` [Compound B7, 1-(5-(4-((4-((4-(2-butyl-1-oxo-1,2-dihydro-2,7-naphthyridin-4-yl)-2,6-dimethoxyphenoxy)methyl)piperidin-1-yl)methyl)piperidine-1-carbonyl)-2-methoxyphenyl)dihydropyrimidine-2,4(1H,3H)-dione], the “BRD9 Deg Amax %” value is reported as 17.54% and the DC50 is reported as 7 nM.
With `CCCCn1cc(-c2cc(OC)c(OCC3CCN(CC4CCN(C(=O)c5ccc(Cl)c(N6CCC(=O)NC6=O)c5)CC4)CC3)c(OC)c2)c2ccncc2c1=O` [Compound B8, 1-(5-(4-((4-((4-(2-butyl-1-oxo-1,2-dihydro-2,7-naphthyridin-4-yl)-2,6-dimethoxyphenoxy)methyl)piperidin-1-yl)methyl)piperidine-1-carbonyl)-2-chlorophenyl)dihydropyrimidine-2,4(1H,3H)-dione] the “BRD9 Deg Amax %” value was 17.89% and the DC50 was 3 nM.
`CCCCn1cc(-c2cc(OC)c(OC3CCN(CC4CCN(C(=O)c5ccc(Cl)c(N6CCC(=O)NC6=O)c5)CC4)CC3)c(OC)c2)c2ccncc2c1=O` [Compound B9, 1-(5-(4-((4-(4-(2-butyl-1-oxo-1,2-dihydro-2,7-naphthyridin-4-yl)-2,6-dimethoxyphenoxy)piperidin-1-yl)methyl)piperidine-1-carbonyl)-2-chlorophenyl)dihydropyrimidine-2,4(1H,3H)-dione] was tested, and the “BRD9 Deg Amax %” value was 14.33% and the DC50 was 1 nM.
For `CCCCn1cc(-c2cc(OC)c(OC3CCN(CC4CCN(C(=O)c5ccc(OC)c(N6CCC(=O)NC6=O)c5)CC4)CC3)c(OC)c2)c2ccncc2c1=O` [Compound B10, 1-(5-(4-((4-(4-(2-butyl-1-oxo-1,2-dihydro-2,7-naphthyridin-4-yl)-2,6-dimethoxyphenoxy)piperidin-1-yl)methyl)piperidine-1-carbonyl)-2-methoxyphenyl)dihydropyrimidine-2,4(1H,3H)-dione], the “BRD9 Deg Amax %” value was 16.55% and the DC50 was 6 nM.
With `COc1cc(-c2cn(C)c(=O)c3cnccc23)c(OC)cc1CN1CCC(OC2CCN(CCn3cccc(CN4CCC(=O)NC4=O)c3=O)CC2)CC1` [Compound C1, 1-((1-(2-(4-(1-(2,5-Dimethoxy-4-(2-methyl-1-oxo-1,2-dihydro-2,7-naphthyridin-4-yl)benzyl)piperidin-4-yloxy)piperidin-1-yl)ethyl)-2-oxo-1,2-dihydropyridin-3-yl)methyl)dihydropyrimidine-2,4(1H,3H)-dione] the “BRD9 Deg Amax %” value was 13.59% and the DC50 was 29 nM.
`COc1cc(-c2cn(C)c(=O)c3cnccc23)cc(OC)c1CN1CCC(OC2CCN(CCn3cccc(CN4CCC(=O)NC4=O)c3=O)CC2)CC1` [Compound C2, 1-((1-(2-(4-((1-(2,6-dimethoxy-4-(2-methyl-1-oxo-1,2-dihydro-2,7-naphthyridin-4-yl)benzyl)piperidin-4-yl)oxy)piperidin-1-yl)ethyl)-2-oxo-1,2-dihydropyridin-3-yl)methyl)dihydropyrimidine-2,4(1H,3H)-dione] was tested, and the “BRD9 Deg Amax %” value was 11.95% and the DC50 was 29 nM.
With `COc1cc(-c2cn(C)c(=O)c3cnccc23)c(OC)cc1CCN1CCC(OC2CCN(CCn3cccc(CN4CCC(=O)NC4=O)c3=O)CC2)CC1` [Compound C3, 1-((1-(2-(4-((1-(2,5-dimethoxy-4-(2-methyl-1-oxo-1,2-dihydro-2,7-naphthyridin-4-yl)phenethyl)piperidin-4-yl)oxy)piperidin-1-yl)ethyl)-2-oxo-1,2-dihydropyridin-3-yl)methyl)dihydropyrimidine-2,4(1H,3H)-dione] the “BRD9 Deg Amax %” value was 17.50% and the DC50 was 77 nM.
For `COc1cc(-c2cn(C)c(=O)c3cnccc23)cc(OC)c1CCN1CCC(OC2CCN(CCn3cccc(CN4CCC(=O)NC4=O)c3=O)CC2)CC1` [Compound C4, 1-((1-(2-(4-((1-(2,6-dimethoxy-4-(2-methyl-1-oxo-1,2-dihydro-2,7-naphthyridin-4-yl)phenethyl)piperidin-4-yl)oxy)piperidin-1-yl)ethyl)-2-oxo-1,2-dihydropyridin-3-yl)methyl)dihydropyrimidine-2,4(1H,3H)-dione], the “BRD9 Deg Amax %” value was 19.82% and the DC50 was 17 nM.
